Source: patent publication US7115642B2, “Substituted diphenyl isoxazoles, pyrazoles and oxadiazoles useful for treating HCV infection” (priority 2003, dated 2006)
Read-outs that look alike come from different tables or passages of the source.

Columns and labels:
[1] = test system: HCV replicon (5-2 Luc replicon-comprising cells); assay: HCV replicon assay (luciferase); format: cell-based, Hepatitis C virus; settings: 5-2 Luc replicon cells, luciferase readout, read-out: Replicon IC50
Procedure, shortened: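 Huh7-derived 5-2 Luc replicon cells seeded 24 h at 37 °C, then exposed to compound at various concentrations for another 24 h. Luciferase quantified by Bright-Glo luminescence; IC50 = concentration giving 50% reduction in luciferase activity; reported as +/− at a 10 μM cut-off.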

[2] = Cytotoxicity assay (Cell Titer Glo); format: cell-based; settings: human; 48 hr with compound, ATP-dependent Cell Titer Glo assay; read-out: IC50 in cytotoxicity assay (number of viable cells)
Method: Compounds 67, 167, 169, 13, 1, 145, 29, 119, 63, 31, 39, 103, 123, 121, 97, 129, 79, 111, 85, 89, 109, 127, 131, 95, 47, 57, 69, 165, 161, 163, 3, 137, 15, 141, 41, 53, 33, 113, 93, 105, 77, 91, 81, 83, 35, 27, 65, 7, 135, 51, 139, 51, 49, 143, 5, 149, 11, 37, 21, 45, 61, 75, 23, 125, 73, 43, 171 and 101 were tested in a cytotoxicity assay with liver cells including an HCV replicon (5-2 Luc cells, 9–13 cells or Huh-7 cells). In the assay, cells were seeded onto 96-well plates (approx. 7500 cells/well in a volume of 90 μl) and grown for 24 hr at 37° C. On day 2, various concentrations of test compound (in a volume of 10 μl) were added to the wells and the cells were grown for an additional 48 hr at 37° C. On day 4, an ATP-dependent R-Luciferase assay (Cell Titer Glo assay) was performed to determine the number of viable cells.

Work on O=C(Nc1cccc(-c2cc(-c3c(Cl)cccc3Cl)no2)c1)C(Br)Br [Compound 29, 2,2-Dibromo-N-[3-[3-(2,6-dichlorophenyl)-5-isoxazolyl]phenyl]Acetamide] yielded an IC50 ([1]; Hepatitis C virus) of less than 10 µM and an IC50 at 48 h [2] greater than 10 µM.

For Cc1cccc(Cl)c1-c1cc(-c2cccc(NC(=O)C(Cl)Cl)c2)on1 [Compound 31, 2,2-Dichloro-N-[3-[3-(2-chloro-6-methylphenyl)-5-isoxazolyl]phenyl]Acetamide], the IC50 ([1]; Hepatitis C virus) was less than 10 µM and the IC50 at 48 h [2] was greater than 10 µM.

In the case of O=C(Nc1cccc(-c2cc(-c3ccccc3C(F)(F)F)no2)c1)C(Cl)Cl [Compound 33, 2,2-Dichloro-N-[3-[3-(2-trifluoromethylphenyl)-5-isoxazolyl]phenyl]Acetamide], the IC50 ([1]; Hepatitis C virus) is reported as less than 10 µM and the IC50 at 48 h [2] is reported as greater than 10 µM.

In the case of O=C(Nc1cccc(-c2cc(-c3c(O)cccc3C(F)(F)F)no2)c1)C(Cl)Cl [Compound 35, 2,2-Dichloro-N-[3-[3-(2-hydroxy-6-trifluoromethylphenyl)-5-isoxazolyl]phenyl]Acetamide], the IC50 ([1]; Hepatitis C virus) is reported as less than 10 µM and the IC50 at 48 h [2] is reported as greater than 10 µM.

In the case of CC(C)c1cccc(Cl)c1-c1cc(-c2cccc(NC(=O)C(Cl)Cl)c2)on1 [Compound 39, 2,2-Dichloro-N-[3-[3-(2-chloro-6-isopropylphenyl)-5-isoxazolyl]phenyl]Acetamide], the IC50 ([1]; Hepatitis C virus) is reported as less than 10 µM and the IC50 at 48 h [2] is reported as greater than 10 µM.

Compound O=C(Nc1cccc(-c2cc(-c3c(F)cccc3C(F)(F)F)no2)c1)C(Cl)Cl [Compound 41, 2,2-Dichloro-N-[3-[3-(2-fluoro-6-trifluoromethylphenyl)-5-isoxazolyl]phenyl]Acetamide] has an IC50 ([1]; Hepatitis C virus) of less than 10 µM and an IC50 at 48 h [2] greater than 10 µM.

In the case of COc1cccc(F)c1-c1cc(-c2cccc(NC(=O)C(Cl)Cl)c2)on1 [Compound 43, 2,2-Dichloro-N-[3-[3-(2-fluoro-6-methoxyphenyl)-5-isoxazolyl]phenyl]Acetamide], the IC50 ([1]; Hepatitis C virus) is reported as less than 10 µM and the IC50 at 48 h [2] is reported as greater than 10 µM.

Work on O=C(Nc1cccc(-c2cc(-c3ccccc3OC(F)F)no2)c1)C(Cl)Cl [Compound 45, 2,2-Dichloro-N-[3-[3-(2-difluoromethoxyphenyl)-5-isoxazolyl]phenyl]Acetamide] yielded an IC50 ([1]; Hepatitis C virus) of less than 10 µM and an IC50 at 48 h [2] greater than 10 µM.

Cc1cccc(C)c1-c1cc(-c2cccc(NC(=O)C(Cl)Cl)c2)on1 [Compound 47, 2,2-Dichloro-N-[3-[3-(2,6-dimethylphenyl)-5-isoxazolyl]phenyl]Acetamide] gave an IC50 ([1]; Hepatitis C virus) of less than 10 µM and an IC50 at 48 h [2] greater than 5 µM.

Work on O=C(Nc1cccc(-c2cc(-c3c(F)cccc3I)no2)c1)C(Cl)Cl [Compound 49, 2,2-Dichloro-N-[3-[3-(2-fluoro-6-iodophenyl)-5-isoxazolyl]phenyl]Acetamide] yielded an IC50 ([1]; Hepatitis C virus) of less than 10 µM and an IC50 at 48 h [2] greater than 10 µM.

Cc1ccc(Cl)c(-c2cc(-c3cccc(NC(=O)C(Cl)Cl)c3)on2)c1F [Compound 51, 2,2-Dichloro-N-[3-[3-(6-chloro-2-fluoro-3-methylphenyl)-5-isoxazolyl]phenyl]Acetamide] gave an IC50 ([1]; Hepatitis C virus) of less than 10 µM and an IC50 at 48 h [2] greater than 10 µM.

For O=C(Nc1cccc(-c2cc(-c3c(F)ccc(F)c3Cl)no2)c1)C(Cl)Cl [Compound 53, 2,2-Dichloro-N-[3-[3-(2-chloro-3,6-difluorophenyl)-5-isoxazolyl]phenyl]Acetamide], the IC50 ([1]; Hepatitis C virus) was less than 10 µM and the IC50 at 48 h [2] was greater than 10 µM.

CCOc1ccccc1-c1cc(-c2cccc(NC(=O)C(Cl)Cl)c2)on1 [Compound 61, 2,2-Dichloro-N-[3-[3-(2-ethoxyphenyl)-5-isoxazolyl]phenyl]Acetamide] gave an IC50 ([1]; Hepatitis C virus) of less than 10 µM and an IC50 at 48 h [2] greater than 10 µM.

For CC(C)c1ccccc1-c1cc(-c2cccc(NC(=O)C(Cl)Cl)c2)on1 [Compound 63, 2,2-Dichloro-N-[3-[3-(2-isopropylphenyl)-5-isoxazolyl]phenyl]Acetamide], the IC50 ([1]; Hepatitis C virus) was less than 10 µM and the IC50 at 48 h [2] was greater than 10 µM.

For CN(C)c1cc(Cl)c(-c2cc(-c3cccc(NC(=O)C(Cl)Cl)c3)on2)c(Cl)c1 [Compound 65, 2,2-Dichloro-N-[3-[3-(2,6-dichloro-4-dimethylaminophenyl)-5-isoxazolyl]phenyl]Acetamide], the IC50 ([1]; Hepatitis C virus) was less than 10 µM and the IC50 at 48 h [2] was greater than 10 µM.

In the case of O=C(CCl)Nc1cccc(-c2cc(-c3c(Cl)cccc3Cl)no2)c1 [Compound 67, 2-Chloro-N-[3-[3-(2,6-dichlorophenyl)-5-isoxazolyl]phenyl]Acetamide], the IC50 ([1]; Hepatitis C virus) is reported as less than 10 µM and the IC50 at 48 h [2] is reported as greater than 5 µM.

Cc1cc(C)c(-c2cc(-c3cccc(NC(=O)C(Cl)Cl)c3)on2)c(C)c1 [Compound 69, 2,2-Dichloro-N-[3-[3-(2,4,6-trimethylphenyl)-5-isoxazolyl]phenyl]Acetamide] showed an IC50 ([1]; Hepatitis C virus) of less than 10 µM and an IC50 at 48 h [2] of 3 µM.

COc1cccc(C(F)(F)F)c1-c1cc(-c2cccc(NC(=O)C(Cl)Cl)c2)on1 [Compound 77, 2,2-Dichloro-N-[3-[3-(2-methoxy-6-trifluoromethylphenyl)-5-isoxazolyl]phenyl]Acetamide] gave an IC50 ([1]; Hepatitis C virus) of less than 10 µM and an IC50 at 48 h [2] greater than 10 µM.

For O=C(Nc1cccc(-c2cc(-c3c(Cl)cccc3C3CC3)no2)c1)C(Cl)Cl [Compound 79, 2,2-Dichloro-N-[3-[3-(2-chloro-6-cyclopropylphenyl)-5-isoxazolyl]phenyl]Acetamide], the IC50 ([1]; Hepatitis C virus) was less than 10 µM and the IC50 at 48 h [2] was greater than 10 µM.

Work on COc1cccc(Cl)c1-c1cc(-c2cccc(NC(=O)C(Cl)Cl)c2)on1 [Compound 81, 2,2-Dichloro-N-[3-[3-(2-chloro-6-methoxyphenyl)-5-isoxazolyl]phenyl]Acetamide] yielded an IC50 ([1]; Hepatitis C virus) of less than 10 µM and an IC50 at 48 h [2] greater than 10 µM.

Compound O=C(Nc1cccc(-c2cc(-c3c(O)cccc3Cl)no2)c1)C(Cl)Cl [Compound 83, 2,2-Dichloro-N-[3-[3-(2-chloro-6-hydroxyphenyl)-5-isoxazolyl]phenyl]Acetamide] has an IC50 ([1]; Hepatitis C virus) of less than 10 µM and an IC50 at 48 h [2] greater than 10 µM.

Work on CC(C)(C)OC(=O)N1CCCCC1C(=O)N1CCN(c2cccc(Cl)c2-c2cc(-c3cccc(NC(=O)C(Cl)Cl)c3)on2)CC1 (centres unmarked) [Compound 656] yielded an IC50 [1] of less than 10 µM.

In the case of O=C(Nc1cccc(-c2cc(-c3c(Cl)cccc3N3CCN(C(=O)c4cc(C(F)(F)F)cc(C(F)(F)F)c4)CC3)no2)c1)C(Cl)Cl [Compound 658], the IC50 [1] is reported as less than 10 µM.

COc1cccc(C(=O)N2CCN(c3cccc(Cl)c3-c3cc(-c4cccc(NC(=O)C(Cl)Cl)c4)on3)CC2)c1 [Compound 659] gave an IC50 [1] of less than 10 µM.

Work on O=C(Nc1cccc(-c2cc(-c3c(Cl)cccc3N3CCN(C(=O)c4cccc([N+](=O)[O-])c4)CC3)no2)c1)C(Cl)Cl [Compound 660] yielded an IC50 [1] of less than 10 µM.

With O=C(Nc1cccc(-c2cc(-c3c(Cl)cccc3N3CCN(C(=O)c4ccc(C(F)(F)F)cc4)CC3)no2)c1)C(Cl)Cl [Compound 661] the IC50 [1] was less than 10 µM.

For O=C(Nc1cccc(-c2cc(-c3c(Cl)cccc3N3CCN(C(=O)c4ccc(F)cc4)CC3)no2)c1)C(Cl)Cl [Compound 662], the IC50 [1] was less than 10 µM.

For N#Cc1cccc(C(=O)N2CCN(c3cccc(Cl)c3-c3cc(-c4cccc(NC(=O)C(Cl)Cl)c4)on3)CC2)c1 [Compound 663], the IC50 [1] was less than 10 µM.

In the case of COc1ccc(C(=O)N2CCN(c3cccc(Cl)c3-c3cc(-c4cccc(NC(=O)C(Cl)Cl)c4)on3)CC2)cc1 [Compound 664], the IC50 [1] is reported as less than 10 µM.

O=C(Nc1cccc(-c2cc(-c3c(Cl)cccc3N3CCN(C(=O)C4CCCCN4)CC3)no2)c1)C(Cl)Cl (centres unmarked) [Compound 666] showed an IC50 [1] of less than 10 µM.

For O=C(Nc1cccc(-c2cc(-c3c(Cl)cccc3N3CCN(CCN4CCCCC4)CC3)no2)c1)C(Cl)Cl [Compound 667], the IC50 [1] was less than 10 µM.

In the case of O=C(Nc1cccc(-c2cc(-c3c(Cl)cccc3N3CCC(C(=O)N4CCOCC4)CC3)no2)c1)C(Cl)Cl [Compound 668], the IC50 [1] is reported as greater than 10 µM.

Compound CCCCNC(=O)Nc1cccc(Cl)c1-c1cc(-c2cccc(NC(=O)C(Cl)Cl)c2)on1 [Compound 669] has an IC50 [1] of less than 10 µM.

In the case of O=C(Nc1cccc(-c2cc(-c3c(Cl)cccc3OCc3ccccc3)no2)c1)C(Cl)Cl [Compound 670], the IC50 [1] is reported as less than 10 µM.

For O=C(Nc1cccc(-c2cc(-c3c(Cl)cccc3I)no2)c1)C(Cl)Cl [Compound 677], the IC50 [1] was less than 10 µM.

CC(C)(C)OC(=O)COc1cccc(Cl)c1-c1cc(-c2cccc(NC(=O)C(Cl)Cl)c2)on1 [Compound 678] gave an IC50 [1] greater than 10 µM.

For O=C(Nc1cccc(-c2cc(-c3c(Cl)cccc3NS(=O)(=O)c3ccc(Cl)cc3)no2)c1)C(Cl)Cl [Compound 679], the IC50 [1] was less than 10 µM.

O=C(Nc1cccc(-c2cc(-c3c(Cl)cccc3N3CCC(NS(=O)(=O)c4ccccc4)C3)no2)c1)C(Cl)Cl (centres unmarked) [Compound 681] showed an IC50 [1] of less than 10 µM.

Compound O=C(Nc1cccc(-c2cc(-c3c(Cl)cccc3C(=O)N3CCOCC3)no2)c1)C(Cl)Cl [Compound 683] has an IC50 [1] of less than 10 µM.

In the case of O=C(Nc1cccc(-c2cc(-c3c(Cl)cccc3-c3cccnc3)no2)c1)C(Cl)Cl [Compound 685], the IC50 [1] is reported as less than 10 µM.

With CC(C)(C)OC(=O)c1cccc(Cl)c1-c1cc(-c2cccc(NC(=O)C(Cl)Cl)c2)on1 [Compound 686] the IC50 [1] was less than 10 µM.

Compound O=C(O)c1cccc(Cl)c1-c1cc(-c2cccc(NC(=O)C(Cl)Cl)c2)on1 [Compound 687] has an IC50 [1] greater than 10 µM.

Compound CNC(=O)c1cccc(Cl)c1-c1cc(-c2cccc(NC(=O)C(Cl)Cl)c2)on1 [Compound 691] has an IC50 [1] of less than 10 µM.

For COC(=O)C(NC(=O)c1cccc(Cl)c1-c1cc(-c2cccc(NC(=O)C(Cl)Cl)c2)on1)c1ccccc1 (centres unmarked) [Compound 693], the IC50 [1] was greater than 10 µM.
